Results reported in patent US8796302B2 (priority 2004, dated 2014).

System: dopaminergic neurons in rat primary mesencephalic neuron-glia cultures
Experiment: [3H]DA uptake in LPS-treated mesencephalic neuron-glia cultures
Format: cell-based
Conditions: LPS 5 ng/ml, 7 days, LPS alone 40.1 ± 3.2; for DA uptake, LPS + Peptide 10^−13: peptide 10^−13, 30 min pretreatment; for DA uptake, LPS + Peptide 10^−14: peptide 10^−14, 30 min pretreatment; for DA uptake, LPS + Peptide 10^−15: peptide 10^−15, 30 min pretreatment
Experimental: Neuron-glia cultures were prepared from the ventral mesencephalic tissues of embryonic day 13-14 Fisher F344 rats or day 12-13 wild-type C57BL/6J (gp91phox^+/+) mice. Dissociated cells were seeded at 1×10^5/well and 5×10^5/well to poly-D-lysine-coated 96-well and 24-well plates, respectively. Cells were maintained at about 37° C. in a humidified atmosphere of 5% CO2 and 95% air, in minimal essential medium (MEM) containing 10% fetal bovine serum (FBS), 10% horse serum (HS), 1 gm/l glucose, 2 mM L-glutamine, 1 mM sodium pyruvate, 100 μM nonessential amino acids, 50 U/ml penicillin, and 50 μg/ml streptomycin. Seven-day-old cultures were used for treatment.
Dextromethorphan (obtained from Sigma-Aldrich (St. Louis, Mo.) as dextromethorphan hydrobromide) was freshly prepared as a stock solution (1 mM) in ddH2O and sterile-filtered right before use. For treatment of the cultures, the DM was serially diluted (10×) with fresh culture medium containing 2% of fetal bovine and horse serum. The neuron-glia cultures were pretreated with 10^−5-10^−17M DM 30 minutes prior to treatment with 10 ng/ml of LPS.
Seven days after treatment, the degeneration of dopaminergic neurons was assessed by [^3H]-dopamine (DA) uptake assays. The [^3H]-DA uptake assays were performed as follows. Cultures were washed twice with warm Krebs-Ringer buffer (KRB, 16 mM sodium phosphate, 119 mM NaCl, 4.7 mM KCl, 1.8 mM CaCl2, 1.2 mM MgSO4, 1.3 mM EDTA, and 5.6 mM glucose; pH7.4) and then incubated for about 20 minutes at about 37° C. with 1 μM [^3H]-DA in KRB in order to allow for the uptake of DA. Afterwards, the cultures were washed (three times) with ice-cold KRB and the cells were collected in 1 N NaOH. Radioactivity was determined by liquid scintillation counting.
This example tests whether or not post-treatment with DM is still neuroprotective in LPS-induced neurotoxicity. Neuron-glia co-cultures as prepared in Example 1 were first treated with LPS (20 ng/ml) for twelve hours, and then LPS was removed by removing the media from the cultures and washing twice with PBS. Different concentrations of DM (10^−5, 10^−10, and 10^−14 M) were then added to the cultures and incubation was continued for another 6 or 7 days. The DA uptake and the superoxide production were measured as in Example 1 and 5.
Neuron-glia cell cultures were prepared as in Example 1, and pretreated with the various peptide fragments of Table 1 (peptide fragments were obtained from BACHEM) for 30 minutes followed by addition of 5 ng/ml of LPS. DA neurotoxicity was measured as an Example 1 at 7 days post treatment.
DA neurotoxicity was measured at 7 days post treatment as in Example 1. Dopaminergic neuronal death was determined at 7 days post treatment using immunocytochemical staining as in Example 2.
Neuron-glia cultures were prepared from the ventral mesencephalic tissues of embryonic day 13-14 rats. Dissociated cells were seeded at 1×10^5/well and 5×10^5/well to poly-D-lysine-coated 96-well and 24-well plates, respectively.

Substance | DA uptake, LPS + Peptide 10^−13 | DA uptake, LPS + Peptide 10^−14 | DA uptake, LPS + Peptide 10^−15
Tyr-Gly-Gly-Phe-Leu-Arg-Arg-Ile-Arg-Pro-Lys-Leu-Lys-Trp-Asp-Asn-Gln (YGGFLRRIRPKLKWDNQ; listed as Homo sapiens) [DynA 1-17] | 52.1 ± 6.2% of the control cultures | 58.0 ± 6.5% of the control cultures | 51.0 ± 9.4% of the control cultures
DynA 2-17: peptide fragment of Dynorphin A (YGGFLRRIRPKLKWDNQ), residues 2-17 | 44.3 ± 8.2% of the control cultures | 62.7 ± 8.0% of the control cultures | 50.2 ± 6.9% of the control cultures
